# US8039617B2, “Method for producing alpha form crystals of sapropterin hydrochloride” (Shiratori Pharmaceutical Co., Ltd., priority 2005, dated 2011)
# Where a name gives a salt, the structure may show the parent alone.
# Legend:
# [1] = moisture absorption during storage; type: physicochemical; conditions: for color change due to moisture absorption: hydrochloride
# Procedure: With regard to moisture absorption, α form crystal undergoes increase in weight by moisture absorption of 0.85 to 2% during storage for 14 days under the conditions of 25° C. and at relative humidity of 20 to 75%. […] On the other hand, weight of the β form crystal gradually increases under the conditions of 25° C. and a relative humidity of 60%, and weight increase is 3.5% at 18 hours and the increase continues to the maximum of 3.9%. From this, α form crystal is more moisture-stable than β form. […] Accordingly, α form crystal is suitable for storage.
# [2] = type: physicochemical
# Procedure: Furthermore, in differential thermal analysis, α form crystal has only one endothermic peak near the 250° C. as shown in FIG. 5 while β form crystal has two endothermic peaks near 180° C. and near 230° C. as shown in FIG. 6.
"weight increase by moisture absorption ([1]; 25° C., relative humidity of 60%, at 18 hours) [%]","maximum weight increase by moisture absorption ([1]; 25° C., relative humidity of 60%, maximum) [%]","course of weight increase over storage ([1]; 25° C., relative humidity of 20 to 75%, day 1 to day 14)",endothermic peak in differential thermal analysis (thermal stability) [2] [°C],Structure (SMILES),color change due to moisture absorption [1]
3.5,3.9,–,–,"C[C@H](O)[C@H](O)[C@H]1CNc2nc(N)[nH]c(=O)c2N1 [β form crystal, sapropterin hydrochloride]",changes the color from white to pale yellow
–,–,stable from day 1 to day 14,~250,"C[C@H](O)[C@H](O)[C@H]1CNc2nc(N)[nH]c(=O)c2N1 [α form crystal, sapropterin hydrochloride]",does not change its color
